From ChEMBL document CHEMBL5352493, “Dual inhibitors of ASK1 and PDK1 kinases: Design, synthesis, molecular docking and mechanism studies of N-benzyl pyridine-2-one containing derivatives as anti-fibrotic agents” (Eur J Med Chem, 2023)

Experiments:
[1] = Antiproliferative against rat NRK-49F cells measured after 48 hrs by CCK8 assay; type: toxicity, cell-based
[2] = Antiproliferative against HLF1 cells measured after 48 hrs by CCK8 assay; type: toxicity, cell-based; details: human, HFL1 cells (description prints HLF1)
[3] = Antiproliferative against rat HSC-T6 cells measured after 48 hrs by CCK8 assay; type: toxicity, cell-based
[4] = target: T1, Mitogen-activated protein kinase kinase kinase 5 (Homo sapiens, UniProt Q99683); assay: Inhibition of human recombinant ASK1 using MBP as substrate preincubated for 1 hr followed by reagent addition incubated for 40 mins by ATP-Glo kinase assay
T1 sequence (Q99683 whole entry): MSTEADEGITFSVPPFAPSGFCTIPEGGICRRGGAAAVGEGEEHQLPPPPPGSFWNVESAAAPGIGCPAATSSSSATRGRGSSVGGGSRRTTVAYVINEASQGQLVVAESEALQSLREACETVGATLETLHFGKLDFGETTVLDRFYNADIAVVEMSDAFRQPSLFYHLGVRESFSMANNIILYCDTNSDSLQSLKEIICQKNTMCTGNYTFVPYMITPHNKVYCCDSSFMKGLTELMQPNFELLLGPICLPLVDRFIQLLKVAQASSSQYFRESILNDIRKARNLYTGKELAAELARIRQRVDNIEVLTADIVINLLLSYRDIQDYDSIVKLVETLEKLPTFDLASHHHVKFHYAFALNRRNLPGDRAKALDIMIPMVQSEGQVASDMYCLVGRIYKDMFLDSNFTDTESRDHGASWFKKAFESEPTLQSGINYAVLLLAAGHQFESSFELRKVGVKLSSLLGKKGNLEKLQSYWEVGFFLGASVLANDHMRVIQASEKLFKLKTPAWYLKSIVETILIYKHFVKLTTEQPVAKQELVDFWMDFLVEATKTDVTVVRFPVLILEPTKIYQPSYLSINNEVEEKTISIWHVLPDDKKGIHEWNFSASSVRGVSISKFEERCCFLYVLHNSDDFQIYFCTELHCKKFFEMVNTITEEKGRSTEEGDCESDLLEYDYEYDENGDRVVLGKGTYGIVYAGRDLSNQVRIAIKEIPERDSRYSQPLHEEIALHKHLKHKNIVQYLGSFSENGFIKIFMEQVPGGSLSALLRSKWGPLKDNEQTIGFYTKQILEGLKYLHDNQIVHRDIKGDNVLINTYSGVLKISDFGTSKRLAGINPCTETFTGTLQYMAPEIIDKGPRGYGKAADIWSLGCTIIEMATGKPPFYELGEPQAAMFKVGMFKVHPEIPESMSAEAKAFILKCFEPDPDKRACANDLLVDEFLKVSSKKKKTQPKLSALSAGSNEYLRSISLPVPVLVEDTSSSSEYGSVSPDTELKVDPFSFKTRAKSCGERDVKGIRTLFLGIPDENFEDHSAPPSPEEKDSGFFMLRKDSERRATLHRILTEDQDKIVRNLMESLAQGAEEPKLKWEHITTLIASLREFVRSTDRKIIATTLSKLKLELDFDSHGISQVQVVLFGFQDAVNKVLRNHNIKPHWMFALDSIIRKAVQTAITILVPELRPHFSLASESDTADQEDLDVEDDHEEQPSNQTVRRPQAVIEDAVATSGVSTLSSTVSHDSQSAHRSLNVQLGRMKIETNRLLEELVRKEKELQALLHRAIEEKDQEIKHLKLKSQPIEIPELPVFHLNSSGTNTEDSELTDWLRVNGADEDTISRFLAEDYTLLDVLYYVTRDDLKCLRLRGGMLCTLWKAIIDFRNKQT

[5] = Antiproliferative against human BEAS-2B cells measured after 48 hrs by CCK8 assay; type: toxicity, cell-based
[6] = target: T1, Mitogen-activated protein kinase kinase kinase 5; assay: Inhibition of ASK1 (unknown origin)

Row | SMILES | IC50 at 48 h [1] | IC50 at 48 h [2] | IC50 at 48 h [3] | IC50 [4] | IC50 at 48 h [5] | IC50 [6]
1 | CC(C)n1cnnc1-c1cccc(NC(=O)c2cc3c(C(F)(F)F)nn(C)c3nc2OCc2ccccc2F)n1 | > 80 µM | 17.9 µM | > 80 µM | > 5 µM | – | –
2 | CCn1c(=O)c(C(=O)Nc2cccc(-c3nncn3C3CCCCC3)n2)cc2c(C(F)(F)F)nn(C)c21 | > 80 µM | > 80 µM | > 80 µM | 1.57 µM | – | –
3 | Cn1nc(C(F)(F)F)c2cc(C(=O)Nc3cccc(-c4nncn4C4CCCC4)c3)c(=O)[nH]c21 | > 80 µM | > 80 µM | > 80 µM | > 5 µM | – | –
4 | O=C(Nc1cccc(-c2nncn2C2CC2)n1)c1cc(Br)cn(Cc2ccccc2F)c1=O | > 80 µM | > 80 µM | > 80 µM | > 5 µM | – | –
5 | O=C(Nc1cccc(-c2nncn2C2CC2)n1)c1cc(-c2cccnc2)cn(Cc2ccccc2F)c1=O | > 80 µM | 64.2 µM | > 80 µM | > 5 µM | – | –
6 | O=C(Nc1cccc(-c2nncn2C2CC2)c1)c1cc(-n2cnc(C3CC3)c2)ccn1 | 34.4 µM | 67.9 µM | 33.4 µM | – | 90.2 µM | –
7 | CC(C)n1cnnc1-c1cccc(NC(=O)c2cc3c(C(F)(F)F)nn(C)c3[nH]c2=O)c1 | > 80 µM | > 80 µM | > 80 µM | > 5 µM | – | –
8 | Cn1nc(C(F)(F)F)c2cc(C(=O)Nc3cccc(-c4nncn4C4CC4)n3)c(OCc3ccccc3F)nc21 | 55.2 µM | 62.5 µM | > 80 µM | 1.29 µM | – | –
9 | CC(C)n1cnnc1-c1cccc(NC(=O)c2cc3c(C(F)(F)F)nn(C)c3[nH]c2=O)n1 | > 80 µM | > 80 µM | > 80 µM | 2.66 µM | – | –
10 | O=C(N[C@@H](COc1ccc2[nH]c(=O)[nH]c2c1)c1ccccc1)c1cccn(Cc2ccc(F)c(F)c2)c1=O | 40.4 µM | 64.8 µM | 36.2 µM | > 5 µM | 96.4 µM | –
11 | Cc1cc(F)c(C(=O)Nc2cccc(-c3nncn3C(C)C)c2)cc1-n1cnc(C2CC2)c1 | – | – | – | – | – | 0.0129 µM
12 | Cn1nc(C(F)(F)F)c2cc(C(=O)Nc3cccc(-c4nncn4C4CCCCC4)c3)c(=O)[nH]c21 | > 80 µM | > 80 µM | > 80 µM | > 5 µM | – | –
13 | CCCCn1cnnc1-c1cccc(NC(=O)c2cc3c(C(F)(F)F)nn(C)c3[nH]c2=O)n1 | > 80 µM | > 80 µM | > 80 µM | 0.978 µM | – | –
14 | O=C(Nc1cccc(-c2nncn2C2CC2)n1)c1cc(-c2cnc(Cl)nc2)cn(Cc2ccccc2F)c1=O | > 80 µM | 29.2 µM | > 80 µM | 2.37 µM | – | –
15 | Cn1nc(C(F)(F)F)c2cc(C(=O)Nc3cccc(-c4nncn4C4CCCCC4)n3)c(=O)[nH]c21 | > 80 µM | > 80 µM | > 80 µM | > 5 µM | – | –
16 | CC(C)n1cnnc1-c1cccc(NC(=O)c2cc3c(C(F)(F)F)nn(C)c3n(C)c2=O)c1 | 56.1 µM | > 80 µM | > 80 µM | > 5 µM | – | –
17 | O=C(Nc1cccc(-c2nncn2C2CC2)n1)c1cc(-c2cnn(C(F)F)c2)cn(Cc2ccccc2F)c1=O | 58.5 µM | > 80 µM | > 80 µM | 0.291 µM | – | –
18 | O=C(Nc1cccc(-c2nncn2C2CC2)n1)c1cc(-c2cccc3[nH]ccc23)cn(Cc2ccccc2F)c1=O | 47 µM | > 80 µM | > 80 µM | > 5 µM | – | –
19 | Cn1nc(C(F)(F)F)c2cc(C(=O)Nc3cccc(-c4nncn4C4CCCC4)n3)c(OCc3ccccc3F)nc21 | 11.4 µM | 7.99 µM | 14.8 µM | 1.02 µM | – | –
20 | O=C(Nc1cccc(-c2nncn2C2CC2)n1)c1cc(-c2ccc3scnc3c2)cn(Cc2ccccc2F)c1=O | 34.2 µM | 68.3 µM | > 80 µM | > 5 µM | – | –
21 | O=C(Nc1cccc(-c2nncn2C2CC2)n1)c1cc(-c2cnn(C3CCC3)c2)cn(Cc2ccccc2F)c1=O | > 80 µM | 10.7 µM | > 80 µM | 0.289 µM | – | –
22 | O=C(Nc1cccc(-c2nncn2C2CC2)n1)c1cc(-c2ccc3[nH]ccc3c2)cn(Cc2ccccc2F)c1=O | 5.75 µM | 18.7 µM | > 80 µM | > 5 µM | – | –
23 | Cn1nc(C(F)(F)F)c2cc(C(=O)Nc3cccc(-c4nncn4C4CC4)n3)c(=O)[nH]c21 | > 80 µM | > 80 µM | > 80 µM | 0.489 µM | – | –
24 | Cn1nc(C(F)(F)F)c2cc(C(=O)Nc3cccc(-c4nncn4C4CCCC4)n3)c(=O)[nH]c21 | > 80 µM | > 80 µM | > 80 µM | 2.18 µM | – | –
